Data published in patent US9925202B2, “Treatment of lymphangioleiomyomatosis” (THE BRIGHAM AND WOMEN'S HOSPITAL, INC., priority 2013, dated 2018).

Experiments:
[1] = test system: LAM patient-derived TSC2-deficient 621-101 cells; assay: COX, phospho-protein and secreted prostaglandin levels in 621-101 cells (immunoblot, enzyme immunoassay); assay type: cell-based, human; conditions: 24 hr; for COX-1 levels / COX-2 levels / phosphorylation of MAPK or S6: 50 μM NS398 or 450 μM aspirin, immunoblot
Protocol: (§1) Cell culture and reagents. ELT-3 cells (Eker rat uterine leiomyoma-derived) (22,23) and LAM patient-derived 621-101 cells were cultured in IIA complete medium. HeLa, U2OS and OVARC5 cells were cultured in DMEM supplemented with 10% FBS. 17-beta-estradiol (10 nM), rapamycin (20 nM, Biomols), NS398 (50 μM), aspirin (450 μM Sigma), and 15-epi-LXA4 (100 nM) were used as indicated.
(§2) Immunoblotting and antibodies. Cells were lysed in m-PER buffer (PIERCE). Antibodies were used: COX-1, COX-2, phospho-MAPK (T202/Y204), phospho-S6 (S235/236), Cleaved caspase 3, cleaved PARP (CELL SIGNALING), tuberin and c-Myc (SANTA CRUZ), smooth muscle actin (BIOGENEX), and beta-actin (SIGMA).
(§3) Quantification of prostaglandin levels. PGE2, 6-keto-PGF1α and creatinine were measured using enzyme immunoassay kits (Cayman Chemical). Levels of secreted prostaglandins were normalized to protein concentrations and expressed as pg/mg protein. Urinary levels of prostaglandins were normalized to creatinine levels and expressed as […].

[2] = test system: LAM patient-derived 621-101 cells; assay: Proliferation of 621-101 cells; assay type: cell-based, human
Protocol: as §1

[3] = test system: A549 cells (Human lung adenocarcinoma); conditions: reference 18; cited from earlier work
TSC2-deficient cells = assay: COX-2 activation and prostaglandin production in TSC2-deficient cells with Torin 1; assay type: cell-based; conditions: specifically to TSC2-deficient cells
[4] = test system: xenograft tumors of TSC2-deficient ELT3-luciferase-expressing cells; assay: Aspirin in xenograft tumor model of ELT3-luciferase-expressing cells; assay type: in vivo, mice
Protocol: Animal studies. All animal work was performed in accordance with protocols approved by the IACUC-BWH. Female intact CB17-SCID mice were used as described previously (8, 24, 25). Aspirin (100 mg/kg/day, in drinking water) treatment was initiated five weeks post-cell inoculation. Urine specimens were collected.
as §2, §3
Statistical analyses. Statistical analyses were performed using Student's t-test when comparing two groups for in vitro and in vivo studies. Two-Way ANOVO test was performed in xenograft tumor-aspirin studies. Mann Whitney tests were used for prostaglandin quantification in clinical data.
To determine whether inhibition of COX-1 and/or COX-2 impacts the growth of LAM patient-derived cells, 621-101 cells were treated with Sulindac (a COX-1 inhibitor), NS398 (a COX-2 inhibitor), or aspirin (an irreversible COX-1 and COX-2 inhibitor) for 24 hr. […] The inventors next assessed the possible benefit of aspirin in a xenograft tumor model of TSC2-deficient ELT3-luciferase-expressing cells. Aspirin treatment for two-three weeks decreased the intensity of bioluminescence (FIG. 3c), reduced the growth of xenograft tumors by 35% (FIG. 3d), and decreased the tumor size (FIG. 3e). Tumors also had reduced expression of COX-2 and c-Myc, and increased levels of cleaved-caspase-3 and cleaved-PARP (Data not shown).

[5] = test system: tumors of TSC2-deficient LAM patient-derived cells; assay: Metastatic tumor model of LAM derived cells; assay type: in vivo, mice; conditions: aspirin treatment
Protocol: Arrows indicate individual tumors.
Bioluminescent imaging was performed weekly. Tumor area was normalized to the baseline before drug administration.
FIGS. 3f and 3g show the urinary PGE2 that was quantified from mice treated with aspirin or vehicle for 7 and 30 days. *p<0.05.

LAM patients = assay: Exhaled breath condensate and lung function in LAM patients on aspirin; assay type: in vivo, human
Protocol: To examine the functional effect of COX-2 in LAM lungs, 15-epi-lipoxin A4 (LXA4), a product of aspirin-acetylated COX-2, was measured in exhaled breath condensate (EBC) from three LAM subjects (data not shown). 15-epi-LXA4 was detected in EBC and the levels were increased with aspirin (data not shown).

[6] = aspirin 100 mg/kg/day in drinking water, two-three weeks
[7] = aspirin-treated mice, data not shown
[8] = LAM patients, aspirin treatment

CS(=O)(=O)Nc1ccc([N+](=O)[O-])cc1OC1CCCCC1 [NS398]
COX-1 levels [1]: reduced
COX-2 levels [1]: reduced
phosphorylation of MAPK or S6 [1]: without affecting

CCCCC[C@@H](O)/C=C/C=C\C=C\C=C\[C@@H](O)[C@@H](O)CCCC(=O)O [15-epi-LXA4, 15-epi-lipoxin A4]
proliferation of LAM patient-derived 621-101 cells ([2]; 15-epi-LXA4 100 nM, data not shown): suppressed
proliferation of A549 cells [3]: decreases

CCC(=O)N1CCN(c2ccc(-n3c(=O)ccc4cnc5ccc(-c6cnc7ccccc7c6)cc5c43)cc2C(F)(F)F)CC1 [Torin 1]
COX-2 activation and prostaglandin production (TSC2-deficient cells): suppresses

CC(=O)Oc1ccccc1C(=O)O [aspirin]
COX-1 levels [1]: reduced
COX-2 levels [1]: reduced
phosphorylation of MAPK or S6 [1]: without affecting
PGE2 levels ([1]; aspirin 450 μM, conditioned media, ELISA): significantly decreased
proliferation of 621-101 cells ([2]; aspirin 450 μM): reduced
intensity of bioluminescence [4, 6]: decreased
reduction of growth of xenograft tumors [4, 6]: 35%
tumor size [4, 6]: decreased
urinary levels of PGE2 and 6-Keto-PGF1α ([4]; aspirin-treated mice bearing ELT3 xenograft tumors, data not shown): markedly reduced
apoptosis in xenograft tumors ([4]; aspirin-treated mice compared to vehicle-treatment): higher levels
expression of COX-2 and c-Myc in tumors [4, 7]: reduced
levels of cleaved-caspase-3 and cleaved-PARP in tumors [4, 7]: increased
growth of tumors of LAM derived cells [5]: decreased
urinary prostaglandins [5]: reduction
lung function (LAM patients; [8]): improved
prostaglandin levels in exhaled breath condensate (LAM patients; [8]): reduced
15-epi-LXA4 levels in exhaled breath condensate (EBC) (LAM patients; three LAM subjects, oral aspirin ingestion, data not shown): increased
